Patent publication US11479587B2, “Cationic intrinsically disordered antimicrobial peptides” (priority 2016, dated 2022)
≈ marks a conversion by molar mass, not a printed value. Where “and” joins values, the source holds several entries; their conditions need not be identical. Equal entries are not always repeated. Where two headings read alike, the source gives them in different places. Non-standard residues stand in square brackets, D forms with d. Residues, ends and D or L forms follow the SMILES beside them. No end group written: not given here. *: point of attachment. Palmitoyl = CCCCCCCCCCCCCCCC(=O)*; Dap = NC[C@H](N)C(=O)O

What was measured:
S. aureus ATCC 6538 = assay: CFU-assay, S. aureus-cidal activity; assay type: cell-based, Staphylococcus aureus; conditions: pH 5.5, 0.25% glucose
Method in brief: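 Bactericidal CFU-assay in nutrient-deficient 10 mM sodium phosphate buffer pH 5.5 with 0.25% glucose, counting surviving colonies across twofold peptide dilutions from 300 μg/ml to 19 ng/ml. Output is minimal bactericidal concentration (e.g. MBC90, MBC100); some peptides also tested at pH 7.0.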

A. baumannii ATCC 19606 = assay type: cell-based, Acinetobacter baumannii
Method: (§1) Inhibition of bacterial growth was determined using resazurin as a marker for cell viability. Resazurin was added to each well, at 0.001% final concentration, and plates incubated at 37° C. for 2 h. Fluorescence intensity was measured, using F (top read), ex 560/10 nm, em 590/10 nm, using a Tecan M1000 Pro monochromator plate reader.

[1] = system: methicillin-resistant S. aureus strain (ATCC 43300); assay type: cell-based, Staphylococcus aureus
Method: Furthermore, sensitivity of a methicillin-resistant S. aureus strain (ATCC 43300) was investigated for palmitoylated CIDAMPs in a microtiter plate screening model, with incubation in Mueller-Hinton medium at 37° C. for 18 h using resazurin as a marker for cell viability.
A sample of each culture was then diluted 40-fold in fresh broth and incubated at 37° C. for 1.5-3 h. […] All the plates were covered and incubated at 37° C. for 18 h.
as §1

[2] = Cytotoxicity (resazurin) assay
Method: For the cytotoxicity (resazurin) assay, HEK293 cells were counted manually in a Neubauer haemocytometer and plated at a density of 4000 cells/well into each well of the 384-well plates containing the 25×(2 μl) concentrated compounds. The medium used was Dulbecco's modified eagle medium (DMEM) supplemented with 10% foetal bovine serum (FBS). Cells were incubated together with the compounds for 20 h at 37° C., 5% CO2. To measure cytotoxicity, 5 μl (equals 100 μM final) resazurin was added to each well after incubation, and incubated for further 3 h at 37° C. with 5% CO2.
After final incubation fluorescence intensity was measured as F ex 560/10 nm, em 590/10 nm (F560/590) using a Tecan M1000 Pro monochromator plate reader. […] The concentration dependent percentage cytotoxicity was fitted to a dose response function (using Pipeline Pilot) and CC50 values determined.

P. aeruginosa ATCC 10145 = assay: CFU-assay, P. aeruginosa-cidal activity; assay type: cell-based, Pseudomonas aeruginosa; conditions: pH 5.5, 0.25% glucose
Hemolysis assay = assay type: cell-based
Method: (§2) For the hemolysis assays EDTA-blood was centrifuged at 800×g for 10 min, and the plasma and buffy coat were removed. The erythrocytes were washed three times and resuspended in 5% PBS, pH 7.4. The cells were then incubated with end-over-end rotation for 1 h at 37° C. in the presence of different concentrations of peptides (0, 3, 10, 30, 60 μm). 0.1% Triton X-100 (Sigma-Aldrich) served as positive control. The samples were then centrifuged at 800×g for 10 min.
(§3) The absorbance of hemoglobin release was measured at 540 nm and is expressed as % of Triton X-100-induced hemolysis. These values of triplicates were plotted with Graph Pad Prism 4 as a dose response curve and the CC50 was determined.

erythrocytes = assay: Hemolysis assay; assay type: cell-based
Method: as §2, §3

E. coli ATCC 25922 = assay type: cell-based, Escherichia coli; conditions: Mueller-Hinton medium
Method: as §1

[3] = system: Klebsiella pneumoniae ATCC 13883; assay: CFU-assay, Klebsiella pneumoniae-cidal activity; assay type: cell-based
[4] = erythrocytes, read-out: Hemolysis (CC50)

Molecule: CCCCCCCCCCCCCCCC(=O)NCC(=O)N[C@@H](CCN)C(=O)NCC(=O)N[C@@H](CCN)C(=O)O [Pal-GDab4, Pal-GDabGDab] (HELM PEPTIDE1{[CCCCCCCCCCCCCCCC(=O)[*:2]].G.[Dab].G.[Dab]}$$$$V2.0)
- MBC90 (S. aureus ATCC 6538): 4.7 µg/mL (≈ 8.23 µM)
- MBC100 (S. aureus ATCC 6538): 18.75 µg/mL (≈ 32.9 µM)
- MIC, C. neoformans ATCC 208821 (C. neoformans): ≥16 µg/mL
- MIC, A. baumannii ATCC 19606 (A. baumannii ATCC 19606; ATCC 19606, 2 h): ≥32 µg/mL
- MIC, S. aureus ATCC 43300 ([1]; ATCC 43300, 18 h): ≥32 µg/mL
- CC50 [2]: 32 µg/mL (≈ 56.1 µM)
- MBC90 (P. aeruginosa ATCC 10145): 2.35 µg/mL (≈ 4.12 µM)
- MBC100 (P. aeruginosa ATCC 10145): 9.38 µg/mL (≈ 16.4 µM)
- CC50 (Hemolysis assay): > 100 µg/mL

Molecule: CCCCCCCCCCCCCCCC(=O)NCC(=O)N[C@@H](CN)C(=O)NCC(=O)N[C@@H](CN)C(=O)O [Pal-GDap4, Pal-GDapGDap] (Palmitoyl-G[Dap]G[Dap]-OH)
- MIC, C. neoformans ATCC 208821 (C. neoformans): ≥1 µg/mL
- MIC, C. albicans ATCC 90028 (C. albicans ATCC 928; ATCC 928): ≥8 µg/mL
- MIC (C. albicans ATCC 928; ATCC 928, 18 h, pH 7.4): 1 to 32 µg/mL
- MIC, S. aureus ATCC 43300 ([1]; ATCC 43300, 18 h): ≥8 µg/mL
- CC50 [2]: > 32 µg/mL
- HC50 (Hemolysis assay): > 300 µg/mL
- hemolytic activity (in words) (erythrocytes): low hemolytic activity

Molecule: CCCCCCCCCCCCCCCC(=O)N[C@@H](CCCNC(=N)N)C(=O)NCC(=O)N[C@@H](CO)C(=O)N[C@@H](CCCNC(=N)N)C(=O)N[C@@H](CO)C(=O)NCC(=O)N[C@@H](CCC(N)=O)C(=O)N[C@@H](CO)C(=O)N[C@@H](CO)C(=O)N[C@@H](CCCNC(=N)N)C(=O)NCC(=O)N[C@@H](CCC(=O)O)C(=O)N[C@@H](CCCNC(=N)N)C(=O)N[C@@H](CCCNC(=N)N)C(=O)O [Pal-HR 1-11 2H2R-14] (HELM PEPTIDE1{[CCCCCCCCCCCCCCCC(=O)[*:2]].R.G.S.R.S.G.Q.S.S.R.G.E.R.R}$$$$V2.0)
- MIC, C. neoformans ATCC 208821 (C. neoformans): ≥8 µg/mL
- MIC, A. baumannii ATCC 19606 (A. baumannii ATCC 19606; Mueller-Hinton medium): ≥4 µg/mL
- MIC, S. aureus ATCC 43300 ([1]; Mueller-Hinton medium): ≥8 µg/mL
- CC50 [2]: > 32 µg/mL
- MIC, E. coli ATCC 25922 (E. coli ATCC 25922): ≥8 µg/mL
- HC50 (Hemolysis assay; [4]): > 300 µg/mL

Molecule: CCCCCCCCCCCCCCCC(=O)N[C@@H](CCCNC(=N)N)C(=O)NCC(=O)N[C@@H](CO)C(=O)N[C@@H](CCCNC(=N)N)C(=O)N[C@@H](CO)C(=O)NCC(=O)N[C@@H](CCC(N)=O)C(=O)N[C@@H](CO)C(=O)N[C@@H](CO)C(=O)N[C@@H](CCCNC(=N)N)C(=O)NCC(=O)N[C@@H](CCC(=O)O)C(=O)N[C@@H](CCCNC(=N)N)C(=O)N[C@@H](CCCNC(=N)N)C(=O)NCC(=O)N[C@@H](CO)C(=O)N[C@@H](CO)C(=O)N[C@@H](CO)C(=O)NCC(=O)N[C@@H](CO)C(=O)N[C@@H](CO)C(=O)N[C@@H](CO)C(=O)N[C@@H](CCCNC(=N)N)C(=O)O [Pal-HR 1-11 3H3R] (HELM PEPTIDE1{[CCCCCCCCCCCCCCCC(=O)[*:2]].R.G.S.R.S.G.Q.S.S.R.G.E.R.R.G.S.S.S.G.S.S.S.R}$$$$V2.0)
- MIC, C. neoformans ATCC 208821 (C. neoformans): ≥32 µg/mL
- MIC, A. baumannii ATCC 19606 (A. baumannii ATCC 19606; Mueller-Hinton medium): ≥8 µg/mL
- MIC, C. albicans ATCC 90028 (C. albicans ATCC 928): ≥32 µg/mL
- MIC, S. aureus ATCC 43300 ([1]; Mueller-Hinton medium): >32 µg/mL
- CC50 [2]: > 32 µg/mL
- MIC, E. coli ATCC 25922 (E. coli ATCC 25922): ≥32 µg/mL
- HC50 (Hemolysis assay; [4]): > 300 µg/mL

Molecule: CCCCCCCCCCCCCCCC(=O)NCC(=O)N[C@@H](CCCNC(=N)N)C(=O)N[C@@H](CCCNC(=N)N)C(=O)NCC(=O)N[C@@H](CO)C(=O)NCC(=O)N[C@@H](CC(C)C)C(=O)NCC(=O)N[C@@H](CCCNC(=N)N)C(=O)N[C@@H](CO)C(=O)N[C@@H](CO)C(=O)N[C@@H](CO)C(=O)N[C@@H](CCCNC(=N)N)C(=O)O [Pal-HR 1-18 3H3R-GR13] (HELM PEPTIDE1{[CCCCCCCCCCCCCCCC(=O)[*:2]].G.R.R.G.S.G.L.G.R.S.S.S.R}$$$$V2.0)
- MIC, C. neoformans ATCC 208821 (C. neoformans): ≥16 µg/mL
- MIC, A. baumannii ATCC 19606 (A. baumannii ATCC 19606; ATCC 19606, 2 h): ≥16 µg/mL
- MIC, S. aureus ATCC 43300 ([1]; ATCC 43300, 18 h): ≥16 µg/mL
- CC50 [2]: > 32 µg/mL
- HC50 (Hemolysis assay): > 300 µg/mL
- hemolytic activity (in words) (erythrocytes): low hemolytic activity

Molecule: CCCCCCCCCCCCCCCC(=O)NCC(=O)N[C@@H](CCCNC(=N)N)C(=O)N[C@@H](Cc1c[nH]cn1)C(=O)NCC(=O)N[C@@H](CO)C(=O)NCC(=O)N[C@@H](CC(C)C)C(=O)NCC(=O)N[C@@H](Cc1c[nH]cn1)C(=O)N[C@@H](CO)C(=O)N[C@@H](CO)C(=O)N[C@@H](CO)C(=O)N[C@@H](Cc1c[nH]cn1)C(=O)NCC(=O)N[C@@H](CCC(N)=O)C(=O)N[C@@H](Cc1c[nH]cn1)C(=O)NCC(=O)N[C@@H](CO)C(=O)NCC(=O)N[C@@H](CO)C(=O)NCC(=O)N[C@@H](CCCNC(=N)N)C(=O)O [Pal-HR 1-18] (HELM PEPTIDE1{[CCCCCCCCCCCCCCCC(=O)[*:2]].G.R.H.G.S.G.L.G.H.S.S.S.H.G.Q.H.G.S.G.S.G.R}$$$$V2.0)
- MIC, A. baumannii ATCC 19606 (A. baumannii ATCC 19606; ATCC 19606, 2 h): ≥32 µg/mL
- CC50 [2]: > 32 µg/mL and > 13.7 µM
- HC50 (Hemolysis assay): > 300 µg/mL
- HC50 at 1 h (Hemolysis assay; human, washed erythrocytes from EDTA-blood, pH 7.4): > 130 µM
- hemolytic activity (in words) (erythrocytes): low hemolytic activity

Molecule: CCCCCCCCCCCCCCCC(=O)NCC(=O)N[C@@H](CCCCN)C(=O)N[C@@H](CCCCN)C(=O)NCC(=O)NCC(=O)N[C@@H](CCCCN)C(=O)NCC(=O)NCC(=O)N[C@@H](CCCCN)C(=O)NCC(=O)N[C@@H](CCCCN)C(=O)NCC(=O)N[C@@H](CCCCN)C(=O)O [Pal-K-GR13] (HELM PEPTIDE1{[CCCCCCCCCCCCCCCC(=O)[*:2]].G.K.K.G.G.K.G.G.K.G.K.G.K}$$$$V2.0)
- CC50 [2]: > 32 µg/mL
- HC50 (Hemolysis assay): > 300 µg/mL
- hemolytic activity (in words) (erythrocytes): low hemolytic activity

Molecule: CCCCCCCCCCCCCCCC(=O)NCC(=O)N[C@@H](CCCN)C(=O)N[C@@H](CCCN)C(=O)NCC(=O)NCC(=O)N[C@@H](CCCN)C(=O)NCC(=O)NCC(=O)N[C@@H](CCCN)C(=O)NCC(=O)N[C@@H](CCCN)C(=O)NCC(=O)N[C@@H](CCCN)C(=O)O [Pal-Orn-GR13, Pal-GOOGGOGGOGOGO] (HELM PEPTIDE1{[CCCCCCCCCCCCCCCC(=O)[*:2]].G.[Orn].[Orn].G.G.[Orn].G.G.[Orn].G.[Orn].G.[Orn]}$$$$V2.0)
- CC50 [2]: > 32 µg/mL
- HC50 (Hemolysis assay): > 300 µg/mL
- hemolytic activity (in words) (erythrocytes): low hemolytic activity

Molecule: Pal-SHHRPRLFHRRRH (Palmitoyl-SHHRPRLFHRRRH) [Pal-LCE-3B]
- MBC90 ([3]; pH 5.5, 0.25% glucose): 0.15 µg/mL
- MBC100 ([3]; pH 5.5, 0.25% glucose): 9.38 µg/mL
- MBC90 ([3]; pH 7.3, 0.25% glucose): 2.35 µg/mL
- MBC100 ([3]; pH 7.3, 0.25% glucose): 4.7 µg/mL

Molecule: S-Pal-LCE3C55-75: palmitoylated peptide named among those with low hemolytic activity (SHHRHFRSHQCRRQRSNSCDR; also: S-palmitoylated, Cys not given here; UniProt Q5T5A8 55-75, looked up, fragment)
- hemolytic activity (in words) (erythrocytes): low hemolytic activity
